Reference: the NIST ThermoML archive (doi:10.1016/j.tca.2006.02.034)
± gives the expanded uncertainty stated by the source.

Settings: Crystal; Adiabatic calorimetry

CCCC[n+]1ccn(C)c1.O=S(=O)([N-]S(=O)(=O)C(F)(F)F)C(F)(F)F
Triple point temperature: 270.22 ± 0.05 K
